pKi: −log10 of the molar value.

This assay has as its target T1, GABA A α5 (Homo sapiens, UniProt P18507+P31644).
T1 construct: expressed in transfected cells; host or cells: HEK293 cells, transiently transfected; membranes prepared from cell pellets
Kind of assay: [3H]flumazenil competition binding, human GABA A α5β3γ2 receptors in HEK293 cell membranes. Conditions: human receptor α5β3γ2 transiently transfected in HEK293; 0.5 nM [3H]flumazenil; 1 hour at 4° C.; means of two determinations; read-out: hKi GABA A α5. As to the method:
The affinity of compounds at GABA A receptor subtypes was measured by competition for [3H]flumazenil (85 Ci/mmol; Roche) binding to HEK293 cells expressing rat (stably transfected) or human (transiently transfected) receptors of composition α1β3γ2, α2β3γ2, α3β3γ2 and α5β3γ2.
Cell pellets were suspended in Krebs-tris buffer (4.8 mM KCl, 1.2 mM CaCl2, 1.2 mM MgCl2, 120 mM NaCl, 15 mM Tris; pH 7.5; binding assay buffer), homogenized by polytron for ca. 20 sec on ice and centrifuged for 60 min at 4° C. (50000 g; Sorvall, rotor: SM24=20000 rpm). The cell pellets were re-suspended in Krebs-tris buffer and homogenized by polytron for ca. 15 sec on ice. Protein was measured (Bradford method, Bio-Rad) and aliquots of 1 mL were prepared and stored at −80° C.
Assays were incubated to equilibrium for 1 hour at 4° C. and harvested onto GF/C uni-filters (Packard) by filtration using a Packard harvester and washing with ice-cold wash buffer (50 mM Tris; pH 7.5). After drying, filter-retained radioactivity was detected by liquid scintillation counting. Ki values were calculated using Excel-Fit (Microsoft) and are the means of two determinations.

In the case of `Cc1onc(-c2ccc(F)cc2)c1/C=C/c1cc(C(=O)NC(C)CO)[nH]n1` (centres unmarked) [Example 139, 5-{(E)-2-[3-(4-Fluoro-phenyl)-5-methyl-isoxazol-4-yl]-vinyl}-2H-pyrazole-3-carboxylic acid (2-hydroxy-1-methyl-ethyl)-amide], the pKi is 8.52.
The figure for `Cc1onc(-c2ccc(F)cn2)c1COc1cc(C(=O)NCC(F)(F)F)[nH]n1` [Example 17, 5-[3-(5-Fluoro-pyridin-2-yl)-5-methyl-isoxazol-4-ylmethoxy]-2H-pyrazole-3-carboxylic acid (2,2,2-trifluoro-ethyl)-amide] is 8.92; for `Cc1onc(-c2ccc(F)cc2)c1COc1cc(C(=O)NN(C)C)[nH]n1` [Example 11, 5-[3-(4-Fluoro-phenyl)-5-methyl-isoxazol-4-ylmethoxy]-2H-pyrazole-3-carboxylic acid N′,N′-dimethyl-hydrazide] it is 8.31; for `Cn1nc(OCc2c(-c3ccc(F)cc3)noc2CO)cc1C(=O)NC1CCOC1` (racemic) [Example 97, Rac-5-[3-(4-fluoro-phenyl)-5-hydroxymethyl-isoxazol-4-ylmethoxy]-2-methyl-2H-pyrazole-3-carboxylic acid (tetrahydro-furan-3-yl)-amide] it is 8.35.
The figure for `Cc1onc(-c2ccc(F)cc2)c1COc1cc(C(=O)NCCO)n(C)n1` [Example 62, 5-[3-(4-Fluoro-phenyl)-5-methyl-isoxazol-4-ylmethoxy]-2-methyl-2H-pyrazole-3-carboxylic acid (2-hydroxy-ethyl)-amide] is 8.15; for `Cc1onc(-c2ccc(F)cc2)c1COc1cc(C(=O)N2CC3(COC3)C2)n(C)n1` [Example 77, {5-[3-(4-Fluoro-phenyl)-5-methyl-isoxazol-4-ylmethoxy]-2-methyl-2H-pyrazol-3-yl}-(2-oxa-6-aza-spiro[3.3]hept-6-yl)-methanone] it is 7.34; for `Cc1onc(-c2ccc(F)cc2)c1CNc1cc(C(=O)NCC(C)(C)O)[nH]n1` [Example 152, 5-{[3-(4-Fluoro-phenyl)-5-methyl-isoxazol-4-ylmethyl]-amino}-2H-pyrazole-3-carboxylic acid (2-hydroxy-2-methyl-propyl)-amide] it is 7.68.
For the molecule `Cc1onc(-c2ccc(F)cc2)c1/C=C/c1cc(C(=O)NC(C)C)[nH]n1` [Example 134, 5-{(E)-2-[3-(4-Fluoro-phenyl)-5-methyl-isoxazol-4-yl]-vinyl}-2H-pyrazole-3-carboxylic acid isopropylamide], the pKi was 8.28.
In the case of `Cc1onc(-c2ccc(F)cc2)c1/C=C/c1cc(C(=O)N2CCOCC2)n(C)n1` [Example 129, (5-{(E)-2-[3-(4-Fluoro-phenyl)-5-methyl-isoxazol-4-yl]vinyl}-2-methyl-2H-pyrazol-3-yl)-morpholin-4-yl-methanone] it was 7.93; in that of `Cc1onc(-c2ccccc2)c1COc1cc(C(=O)NC(C)C)[nH]n1` [Example 2, 5-(5-Methyl-3-phenyl-isoxazol-4-ylmethoxy)-2H-pyrazole-3-carboxylic acid isopropylamide], 7.49; in that of `Cn1nc(OCc2c(-c3ccc(Cl)cc3)noc2CO)cc1C(=O)NC(C)(C)CO` [Example 107, 5-[3-(4-Chloro-phenyl)-5-hydroxymethyl-isoxazol-4-ylmethoxy]-2-methyl-2H-pyrazole-3-carboxylic acid (2-hydroxy-1,1-dimethyl-ethyl)-amide], 7.75.
In the case of `Cc1onc(-c2ccc(F)cc2)c1COc1cc(C(=O)N[C@H](C)CO)n(C)n1` (single isomer, unassigned) [Example 76, (−)-5-[3-(4-Fluoro-phenyl)-5-methyl-isoxazol-4-ylmethoxy]-2-methyl-2H-pyrazole-3-carboxylic acid ((S)-2-hydroxy-1-methyl-ethyl)-amide or 5-[3-(4-fluoro-phenyl)-5-methyl-isoxazol-4-ylmethoxy]-2-methyl-2H-pyrazole-3-carboxylic acid ((R)-2-hydroxy-1-methyl-ethyl)-amide or enantiomer] it was 7.97; in that of `CCCCc1noc(C)c1COc1cc(C(=O)NC2CCOC2)[nH]n1` (single isomer, unassigned; (-)) [Example 34, (−)-(S or R)-3-((3-Butyl-5-methylisoxazol-4-yl)methoxy)-N-(tetrahydrofuran-3-yl)-1H-pyrazole-5-carboxamide], 8.24; in that of `Cc1onc(-c2ccc(F)cc2)c1COc1cc(C(N)=O)n(C)n1` [Example 54, 5-[3-(4-Fluoro-phenyl)-5-methyl-isoxazol-4-ylmethoxy]-2-methyl-2H-pyrazole-3-carboxylic acid amide], 7.92.
The figure for `Cc1onc(-c2ccc(F)cc2)c1COc1cc(C(=O)NCC(C)(C)CO)n(C)n1` [Example 65, 5-[3-(4-Fluoro-phenyl)-5-methyl-isoxazol-4-ylmethoxy]-2-methyl-2H-pyrazole-3-carboxylic acid (3-hydroxy-2,2-dimethyl-propyl)-amide] is 8.24; for `Cc1onc(-c2ccc(F)cc2)c1CNc1cc(C(N)=O)n(C)n1` [Example 145, 5-{[3-(4-Fluoro-phenyl)-5-methyl-isoxazol-4-ylmethyl]-amino}-2-methyl-2H-pyrazole-3-carboxylic acid amide] it is 7.16; for `Cc1onc(-c2ccccn2)c1CNc1cc(C(=O)NN2CCOCC2)n(C)n1` [Example 161, 1-Methyl-3-((5-methyl-3-(pyridin-2-yl)isoxazol-4-yl)methylamino)-N-morpholino-1H-pyrazole-5-carboxamide] it is 7.71.
As to `Cc1onc(-c2ccccc2)c1COc1cc(C(=O)NCCO)[nH]n1` [Example 6, 5-(5-Methyl-3-phenyl-isoxazol-4-ylmethoxy)-2H-pyrazole-3-carboxylic acid (2-hydroxy-ethyl)-amide], the pKi was 7.76.
For the molecule `Cc1onc(-c2ccc(F)cc2)c1/C=C/c1cc(C(=O)N2CCS(=O)(=O)CC2)n(C)n1` [Example 127, (1,1-Dioxo-1,6-thiomorpholin-4-yl)-(5-{(E)-2-[3-(4-fluoro-phenyl)-5-methyl-isoxazol-4-yl]-vinyl}-2-methyl-2H-pyrazol-3-yl)-methanone], the pKi is 7.53.
For `Cc1onc(-c2ccc(F)cc2)c1/C=C/c1cc(C(N)=O)[nH]n1` [Example 142, 5-{(E)-2-[3-(4-Fluoro-phenyl)-5-methyl-isoxazol-4-yl]vinyl}-2H-pyrazole-3-carboxylic acid amide], the pKi is 8.32.
The figure for `Cc1onc(-c2ccc(F)cc2)c1COc1cc(C(=O)NC(C)C)n(C)n1` [Example 52, 5-[3-(4-Fluoro-phenyl)-5-methyl-isoxazol-4-ylmethoxy]-2-methyl-2H-pyrazole-3-carboxylic acid isopropylamide] is 8.13.
In the case of `Cc1onc(-c2ccccc2)c1COc1cc(C(=O)NN(C)C)[nH]n1` [Example 5, 5-(5-Methyl-3-phenyl-isoxazol-4-ylmethoxy)-2H-pyrazole-3-carboxylic acid N′,N′-dimethyl-hydrazide] it was 7.84; in that of `Cc1onc(-c2ccc(F)cc2)c1CNc1cc(C(N)=O)[nH]n1` [Example 153, 5-{[3-(4-Fluoro-phenyl)-5-methyl-isoxazol-4-ylmethyl]-amino}-2H-pyrazole-3-carboxylic acid amide], 7.36; in that of `Cc1onc(-c2ccccc2)c1/C=C\c1cc(C(=O)NC(C)C)[nH]n1` [Example 119, 5-[(Z)-2-(5-Methyl-3-phenyl-isoxazol-4-yl)-vinyl]-2H-pyrazole-3-carboxylic acid iso-propylamide], 7.69.
In the case of `CCCCc1noc(C)c1COc1cc(C(=O)NC(C)C)n(C)n1` [Example 86, 5-(3-Butyl-5-methyl-isoxazol-4-ylmethoxy)-2-methyl-2H-pyrazole-3-carboxylic acid isopropylamide], the pKi was 7.41.
In the case of `Cc1onc(-c2ccccn2)c1COc1cc(C(=O)NC2CCOCC2)n(C)n1` [Example 79, 2-Methyl-5-(5-methyl-3-pyridin-2-yl-isoxazol-4-ylmethoxy)-2H-pyrazole-3-carboxylic acid (tetrahydro-pyran-4-yl)-amide] it was 8.19; in that of `Cc1onc(-c2ccc(F)cc2)c1COc1cc(C(=O)NCC(O)C(F)(F)F)n(C)n1` (racemic) [Example 59, Rac-5-[3-(4-Fluoro-phenyl)-5-methyl-isoxazol-4-ylmethoxy]-2-methyl-2H-pyrazole-3-carboxylic acid (3,3,3-trifluoro-2-hydroxy-propyl)-amide], 8.74.
The figure for `Cc1onc(-c2ccc(F)cc2)c1/C=C/c1cc(C(=O)NC(C)CO)n(C)n1` (centres unmarked) [Example 130, 5-{(E)-2-[3-(4-Fluoro-phenyl)-5-methyl-isoxazol-4-yl]vinyl}-2-methyl-2H-pyrazole-3-carboxylic acid (2-hydroxy-1-methyl-ethyl)-amide] is 9.05; for `Cc1onc(-c2ccccc2)c1/C=C/c1cc(C(=O)NC(C)C)[nH]n1` [Example 118, 5-[(E)-2-(5-Methyl-3-phenyl-isoxazol-4-yl)-vinyl]-2H-pyrazole-3-carboxylic acid iso-propylamide] it is 8.29.

Values taken from patent publication US8163728B2, “Pyrazoles” (Hoffmann-La Roche Inc., priority 2009, dated 2012).
